In patent US20230183335A1, “GLP1R AGONIST NMDAR ANTAGONIST CONJUGATES” (KØBENHAVNS UNIVERSITET, priority 2020, published 2023):
Non-standard residues stand in square brackets, D forms with d. Groups on a side chain read outwards from the residue. No end group written: not given here. disulfide linker = not defined here; Pen = CC(C)(S)[C@H](N)C(=O)O

How the values were obtained:
Format in all cases: in vivo
DIO mice [1] = test: Body weight in diet-induced obesity (DIO) mice; conditions: for reduction in body weight (BW %): FIG. 8, after 10 days of treatment; for body weight percentage (BW %) reduction: FIG. 4, 40 nmol/kg or equimolar, DIO mice treated for 8 days; for reduction in body weight %: FIG. 14, DIO mice treated for 5 days, N=7
Experimental: (§1) C57BL6J male mice, in the following referred to as diet-induced obesity (DIO) mice, were maintained on a high-fat diet (58% energy from fat) and had, for each study, an average body weight of more than 45 gram prior to study start. Mice were either housed individually or double-housed. The mice were maintained on a 12 h dark-light cycle at 21-23° C. Compounds were administered subcutaneously once daily (between 2 pm-5 pm) and food intake (FI) and body weight (BW) measured at the corresponding time. For body composition, measures of fat and lean mass were performed prior to the study (1-3 days prior to study start) and on the final day of the study using an MRI scanner (EchoMRI). The group of mice injected with a vehicle (saline) served as the control group.

DIO mice [2] = test: Body composition (fat and lean mass, MRI) in DIO mice; conditions: for change in fat body mass (Delta change) / change in lean body mass (Delta change): FIG. 7, 40 nmol/kg or equimolar, DIO mice treated for 8 days
Experimental: as §1

DIO mice [3] = test: Food intake in diet-induced obesity (DIO) mice
Experimental: as §1

[4] = 100 nmol/kg or equimolar, DIO mice
[5] = FIG. 9, 100 nmol/kg or equimolar, DIO mice treated for 10 days
[6] = FIG. 11, 100 nmol/kg, DIO mice treated for 10 days
[7] = FIG. 5, equimolar doses, DIO mice treated for 8 days, compared to vehicle and memantine
[8] = FIG. 6, 40 nmol/kg or equimolar, DIO mice treated for 8 days

C[C@]12N[C@H](Cc3ccccc31)c1ccccc12 [MK801, reference compound]
reduction in body weight (BW %) (DIO mice [1]; [4]): nearly no percentage change

CC12CC3CC(C)(C1)CC(N)(C3)C2 [memantine, reference compound]
change in fat body mass (Delta change) (DIO mice [2]): reduction in fat body mass
change in lean body mass (Delta change) (DIO mice [2]): nearly no change

GIP/GLP-1/MK801 conjugate: co-agonist GIP/GLP-1 Pen40/MK801 conjugate, peptide according to SEQ ID NO:9 (YGEGTFTSDYSIYLDKQAAKEFVNWLLAGGPSSGAPPPS[Pen]([disulfide linker-MK801]); not fully specified (C-terminus); printed as YX1EGT FTSDY SIYLD KQAAX1 EFVNW LLAGG PSSGA PPPSX2; reading uncertain; also: MK801 attached via disulfide linker; listed as Homo sapiens)
cumulative food intake (Cumulative FI) (DIO mice [3]; FIG. 34, 50 nmol/kg, DIO mice treated for 7 days, control group 15 g): approximately 3 g
overall reduction in body weight compared to the control group (DIO mice [1]; FIG. 33, 50 nmol/kg, DIO mice treated for 7 days): approximately 25%

GLP-1 Cys40/MK801: peptide of SEQ ID NO:1 conjugated with chemical linker derivatized MK801, cysteine linked (HAEGTFTSDVSSYLEEQAAKEFIAWLVKGGPSSGAPPPSC; not fully specified (residue 40, C-terminus); ends and bridges not checked; listed as Homo sapiens)
cumulative food intake (FI Cumulative) (DIO mice [3]; [5]): approximately 13 g/day
cumulative food intake less than the vehicle-treated mice (DIO mice [3]; FIG. 9, 100 nmol/kg, DIO mice treated for 10 days): approximately 10 g/day
daily food intake (FI daily) (DIO mice [3]; FIG. 10, 100 nmol/kg, DIO mice treated for 10 days, compared to vehicle): reduction in food intake was observed all 10 days
change in fat mass (reduction) (DIO mice [2]; [6]): ~5 g
change in lean body mass (DIO mice [2]; [6]): reduction in both fat and lean body mass
reduction in body weight (BW %) (DIO mice [1]; [4]): ~12%

GLP-1 Cys40/Memantine: conjugate of peptide of SEQ ID NO:1 and memantine appended via disulfide linker, unmodified cysteine (cysteine linked) (HAEGTFTSDVSSYLEEQAAKEFIAWLVKGGPSSGAPPPSC; not fully specified (residue 40, C-terminus); ends and bridges not checked; listed as Homo sapiens)
cumulative food intake (FI Cumulative) (DIO mice [3]; [7]): lowered cumulative food intake
daily food intake (FI daily) (DIO mice [3]; [8]): lowered daily food intake
change in fat body mass (Delta change) (DIO mice [2]): approximately 4 g
change in lean body mass (Delta change) (DIO mice [2]): nearly no change
body weight percentage (BW %) reduction (DIO mice [1]): approximately 7%

GLP-1 Cys40: the peptide of SEQ ID NO:1, C-terminal unmodified cysteine (HAEGTFTSDVSSYLEEQAAKEFIAWLVKGGPSSGAPPPSC; not fully specified (C-terminus); ends and bridges not checked; listed as Homo sapiens)
cumulative food intake (FI Cumulative) (DIO mice [3]; [7]): lowered cumulative food intake
daily food intake (FI daily) (DIO mice [3]; [8]): lowered daily food intake
daily food intake (FI daily) (DIO mice [3]; FIG. 6, 40 nmol/kg or equimolar, DIO mice treated for 8 days, listed as GLP-1): only a slight reduction in food intake
cumulative food intake (FI Cumulative) (DIO mice [3]; [5]): lowered cumulative food intake
change in fat body mass (Delta change) (DIO mice [2]): reduction in fat body mass
change in lean body mass (Delta change) (DIO mice [2]): nearly no change
body weight percentage (BW %) reduction (DIO mice [1]): lowered BW %
reduction in body weight (BW %) (DIO mice [1]; [4]): approximately 8%
body weight reduction (DIO mice [1]; FIG. 12, 100 nmol/kg or equimolar, DIO mice, after 5 days of treatment): approximately 4%
reduction in body weight % (DIO mice [1]; 100 nmol/kg or equimolar): approximately 6%

GLP-1 Pen40: peptide of SEQ ID NO:1 with the Pen40 (L-penicillamine) modification (HAEGTFTSDVSSYLEEQAAKEFIAWLVKGGPSSGAPPPSC; not fully specified (residue 40, C-terminus); ends and bridges not checked; listed as Homo sapiens)
reduction in body weight % (DIO mice [1]; 100 nmol/kg or equimolar): approximately 6%
